Where only a bound is given, the exact number is not on record here.

The target in one data set is Histone deacetylase 1 (Homo sapiens, UniProt Q13547). The data set is described as follows: Inhibition of recombinant full length human HDAC1 expressed in baculovirus infected Sf9 cells using FAM-RHKK-Ac as substrate incubated for 17 hrs by electrophoretic mobility shift assay.
Another data set deals with T1, Histone deacetylase 7 (Homo sapiens, UniProt Q8WUI4).
T1 sequence (Q8WUI4 whole entry): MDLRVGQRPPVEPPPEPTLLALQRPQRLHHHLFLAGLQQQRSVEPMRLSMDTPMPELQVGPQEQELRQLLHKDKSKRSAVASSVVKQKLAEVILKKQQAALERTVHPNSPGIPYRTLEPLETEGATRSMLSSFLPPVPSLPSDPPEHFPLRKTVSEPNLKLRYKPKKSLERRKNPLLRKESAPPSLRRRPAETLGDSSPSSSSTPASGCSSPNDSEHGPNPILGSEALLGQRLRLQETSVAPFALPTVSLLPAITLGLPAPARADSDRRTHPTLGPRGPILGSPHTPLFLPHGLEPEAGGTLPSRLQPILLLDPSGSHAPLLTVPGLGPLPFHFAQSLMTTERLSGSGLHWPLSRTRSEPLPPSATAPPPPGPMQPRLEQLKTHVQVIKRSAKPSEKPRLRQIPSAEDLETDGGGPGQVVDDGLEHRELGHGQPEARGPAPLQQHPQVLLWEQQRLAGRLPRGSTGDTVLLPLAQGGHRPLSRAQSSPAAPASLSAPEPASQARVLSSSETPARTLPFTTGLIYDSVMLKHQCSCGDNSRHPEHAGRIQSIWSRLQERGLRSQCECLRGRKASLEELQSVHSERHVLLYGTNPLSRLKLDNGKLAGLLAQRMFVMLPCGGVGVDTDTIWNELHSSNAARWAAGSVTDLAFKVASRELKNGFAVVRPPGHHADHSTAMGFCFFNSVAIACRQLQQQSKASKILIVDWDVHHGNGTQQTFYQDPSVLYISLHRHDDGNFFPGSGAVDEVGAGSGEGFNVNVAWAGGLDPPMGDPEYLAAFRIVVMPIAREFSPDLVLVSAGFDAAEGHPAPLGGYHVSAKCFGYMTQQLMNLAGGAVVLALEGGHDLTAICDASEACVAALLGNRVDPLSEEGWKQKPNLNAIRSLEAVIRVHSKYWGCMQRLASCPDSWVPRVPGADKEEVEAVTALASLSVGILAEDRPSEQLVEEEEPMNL
Description: Inhibition of recombinant full length human HDAC7 expressed in baculovirus infected Sf9 cells using FAM-RHKK-TFAc as substrate incubated for 3 hrs by electrophoretic mobility shift assay. For orientation: Mobility shift assays separate free from complexed probe on a gel.

Data set [1] concerns MV4-11. Description: Induction of apoptosis in human MV4-11 cells assessed as late apoptotic cells incubated for 18 hrs by annexin V FITC and PI based flow cytometry. It is filed as functional, cell-based. A general note: In flow cytometry, cells or beads pass a laser one at a time.
In data set [2] the test system is MV4-11. The data set is described as follows: Induction of apoptosis in human MV4-11 cells assessed as late apoptotic cells at 0.5 uM incubated for 18 hrs by annexin V FITC and PI based flow cytometry (reference value: 9.2 to 9.63 %). The format is functional.
In data set [3] the test system is MV4-11. Description: Induction of apoptosis in human MV4-11 cells assessed as late apoptotic cells at 1 uM incubated for 18 hrs by annexin V FITC and PI based flow cytometry (reference value: 9.2 to 9.63 %). It is filed as functional.
For data set [4], the system named is MV4-11. The data set is described as follows: Induction of apoptosis in human MV4-11 cells assessed as late apoptotic cells at 0.25 uM incubated for 18 hrs by annexin V FITC and PI based flow cytometry (reference value: 9.2 to 9.63 %). The format is functional.
Data set [5] can be described thus: Half life in NSG mouse. It is filed as ADME. The settings on record: in vivo.
The target of another data set is T2, Histone deacetylase 8 (Homo sapiens, UniProt Q9BY41).
T2 sequence (Q9BY41 whole entry): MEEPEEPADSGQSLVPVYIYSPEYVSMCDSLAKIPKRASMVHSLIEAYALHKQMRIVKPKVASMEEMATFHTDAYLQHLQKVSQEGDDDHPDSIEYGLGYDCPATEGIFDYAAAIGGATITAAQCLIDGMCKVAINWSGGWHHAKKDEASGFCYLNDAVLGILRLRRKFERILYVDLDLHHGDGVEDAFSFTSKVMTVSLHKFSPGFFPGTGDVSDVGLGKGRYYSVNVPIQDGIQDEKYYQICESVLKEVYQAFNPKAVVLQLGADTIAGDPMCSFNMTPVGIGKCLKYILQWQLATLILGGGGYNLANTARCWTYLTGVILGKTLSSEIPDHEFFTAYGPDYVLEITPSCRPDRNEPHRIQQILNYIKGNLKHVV
Description: Inhibition of recombinant full length human HDAC8 expressed in baculovirus infected Sf9 cells using FAM-RHKK-TFAc as substrate incubated for 3 hrs by electrophoretic mobility shift assay.

Data set [6] in a line: Cytotoxicity against human MRC9 cells assessed as reduction in cell viability incubated for 72 hrs by cell-titer blue assay. It is filed as cell-based. The following applies: MRC9, 72 h.
In the next data set the test system is MOLM-13. Description: Cytotoxicity against human MOLM13 cells assessed as reduction in cell viability incubated for 72 hrs by cell-titer blue assay. It is filed as functional, cell-based. The settings on record: MOLM-13, 72 h.
In data set [7] the test system is MV4-11. The data set is described as follows: Induction of apoptosis in human MV4-11 cells assessed as viable cells at 0.5 uM incubated for 18 hrs by annexin V FITC and PI based flow cytometry (reference value: 53.01 to 53.07 %). It is filed as functional. The settings on record: Homo sapiens, MV4-11, 18 h; read-out: Activity.
Data set [8] in a line: Stability in CD-1 mouse hepatocytes assessed as compound remaining at 1 uM measured up to 6 hrs by LCMS analysis. The format is ADME, cell-based, Hepatocyte. The settings on record: mouse, 6 h, 1 µM.
Data set [9] has as its system MV4-11. The data set is described as follows: Induction of apoptosis in human MV4-11 cells assessed as early apoptotic cells at 4 uM incubated for 18 hrs by annexin V FITC and PI based flow cytometry (reference value: 19.46 to 22.17 %). It is filed as functional.
The next data set relates to MDA-MB-231. Description: Cytotoxicity against human MDA-MB-231 cells assessed as reduction in cell viability incubated for 72 hrs by cell-titer blue assay. It is filed as functional, cell-based. The settings on record: MDA-MB-231, 72 h.
Data set [10] has as its system MV4-11. The data set is described as follows: Induction of apoptosis in human MV4-11 cells assessed as early apoptotic cells at 0.5 uM incubated for 18 hrs by annexin V FITC and PI based flow cytometry (reference value: 19.46 to 22.17 %). It is filed as functional.
Data set [11] has as its system MV4-11. The data set is described as follows: Induction of apoptosis in human MV4-11 cells assessed as viable cells at 0.25 uM incubated for 18 hrs by annexin V FITC and PI based flow cytometry (reference value: 53.01 to 53.07 %). The settings on record: Homo sapiens, MV4-11, 18 h; read-out: Activity. The format is functional.
For data set [12], the system named is MV4-11. Description: Induction of apoptosis in human MV4-11 cells assessed as early apoptotic cells at 2 uM incubated for 18 hrs by annexin V FITC and PI based flow cytometry (reference value: 19.46 to 22.17 %). It is filed as functional.
The subject of data set [13] is MV4-11. The data set is described as follows: Induction of apoptosis in human MV4-11 cells assessed as viable cells at 1 uM incubated for 18 hrs by annexin V FITC and PI based flow cytometry (reference value: 53.01 to 53.07 %). The settings on record: Homo sapiens, MV4-11, 18 h; read-out: Activity. The format is functional.
Data set [14] in a line: Apparent permeability from apical to basolateral side in human Caco2 cells incubated for 2 hrs by LC/MS analysis. The format is ADME, cell-based, Caco-2. The settings on record: Caco-2. (In general: Passage across Caco-2 layers is used to estimate intestinal permeability.)
Data set [15] relates to MV4-11. Description: Cytotoxicity against human MV4-11 cells assessed as reduction in cell viability incubated for 72 hrs by cell-titer blue assay. The format is functional, cell-based. The settings on record: MV4-11, 72 h.

Histone deacetylase 1, sequence (Q13547 whole entry): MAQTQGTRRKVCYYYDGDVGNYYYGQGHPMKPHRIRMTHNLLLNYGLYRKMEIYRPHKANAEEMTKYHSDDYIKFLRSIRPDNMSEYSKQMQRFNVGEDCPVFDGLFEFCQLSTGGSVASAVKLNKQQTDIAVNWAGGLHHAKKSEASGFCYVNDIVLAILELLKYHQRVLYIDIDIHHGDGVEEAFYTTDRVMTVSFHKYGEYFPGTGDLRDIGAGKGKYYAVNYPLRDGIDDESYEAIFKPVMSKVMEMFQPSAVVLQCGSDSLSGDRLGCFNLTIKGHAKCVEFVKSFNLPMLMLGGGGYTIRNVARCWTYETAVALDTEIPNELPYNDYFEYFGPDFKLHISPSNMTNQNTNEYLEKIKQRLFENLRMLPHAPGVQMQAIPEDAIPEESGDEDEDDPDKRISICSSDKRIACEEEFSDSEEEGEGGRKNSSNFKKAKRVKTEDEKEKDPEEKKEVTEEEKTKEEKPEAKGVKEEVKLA

In general, IC50 refers to the concentration that gives 50% inhibition. The half-life is the time in which the quantity being followed falls by half. As a reminder, the Papp A→B is how fast a substance crosses the layer from the apical side. In the case of `CC(C)(C)c1ccc(C(=O)Nc2ccc(C(=O)NO)cc2)cc1`, the IC50 was 605 nM at Histone deacetylase 1; over 1000 nM at Histone deacetylase 7; 245 nM on Histone deacetylase 8; 33200 nM in [6]; 6000 nM with MOLM-13; over 25000 nM in the data set with MDA-MB-231. In addition, the IC50 with MV4-11 [15] was 576 nM. Besides, the Activity entry is “Dose-dependent effect” with MV4-11 [1]; 11.7% with MV4-11 [2]; 16.08% with MV4-11 [3]; 8.74% in the data set on MV4-11 [4]; 32.14% in the data set with MV4-11 [9]; 20.69% in the data set on MV4-11 [10]. In the data set on MV4-11 [12], the Activity is recorded as 27.83%. Further, in data set [5], the half-life is 5 h. In addition, the viability at 0.5 µM with MV4-11 [7] turned out to be 48.7%. The Stability in [8] was found to be 20%. Besides, the viability at 0.25 µM with MV4-11 [11] came out at 57.5%. Also, in the data set on MV4-11 [13], the viability at 1 µM came out at 40.9%. For the same compound, the Papp A→B at 2 h in data set [14] came to 3.45 ×10⁻⁶ cm/s.
